{"source": "patent US11786468B2", "about": "“Nanoparticles” (KING'S COLLEGE LONDON, priority 2015, dated 2023)", "key": {"[1]": {"assay": "7T MRI T1/T2 assessment and relaxometry of liposome samples", "type": "physicochemical", "parameters": "r1: unit not given here", "settings": "for T1 (s) 1 param / T1 (s) 3 param / T1 (s) Image J / T2 (s) 1 param / T2 (s) Image J / T2 (s) 3 param: 7T", "description": "A series of MRI T1/T2 assessment studies have been carried out using a 7 T pre clinical MRI scanner, with the assistance of Dr Po-Wah So (James Black Centre, KCL). The focus here has been to derive reliable r1/r2 relaxivities per molar Gd(III) for liposome produced using the [Gd]DOTA.DSA, [Gd]DOTA.Ahx.DSA and [Gd]DOTA.Aoc.DSA. This is reliant on both accurate measurements of the T1/T2 effects and also the exact gadolinium concentration in the prepared liposome suspensions. The extrusion and gel filtration processes make this latter hard to estimate, so Inductively Coupled Plasma Mass Spectrometry (ICP-MS) quantification is being assessed. This is turn required testing of suitable acid digestion conditions since the lipid-chelates may not be analysed directly. For both MRI and ICP-MS, commercial Gadovist is being used a positive control contrast agent of known Gd content. Assessment of temperature, buffer salt and liposome size effects on T1/T2 are also underway.\nFIGS. 22 and 23 show Example T1 and T2 brightness traces for controls and liposome samples.\nMRI data (T1, T2 lower is brighter) is shown Table 1:\nComparison of liposomes containing different lipids as measured at 7T Magnet*."}, "[2]": {"assay": "Pharmacokinetics of topotecan in blood by HPLC", "type": "in vivo, Balb C Mice", "settings": "i.v. tail vein, concentration matched", "method": "Balb C Mice were injected with IgFUS-TNPs encapsulating topotecan (8 mg/kg per mouse body weight) and drug pharmacokinetics monitored by blood sample analyses. Blood samples (50-100 μL) were collected at time intervals (2 min-4 h) and transferred into pre-weighed plastic vials containing heparin (5 uL). Cold methanol (100 μL) was added to each and the mixed samples stored over dry ice or at −20° C. until required. After thawing, each vial was weighed again and the difference used to estimate then original sample volume. […] Batches of 5 samples were analysed three times using an Agilent 1100 HPLC equipped with a cooled sample chamber (8-12° C.), a guarded Thermo Hypersil 30×4.6 mm, 5 μm C18 column, a Diode Array Detector (UV/vis absorbance) and an Agilent 1260 Infinity fluorescence detector. […] Detection was by absorbance (210/254/280 nm for proteins and other biologicals; 380 nm for topotecan; all using a bandwidth of 8 nm c.p. reference at 700 nm) and fluorescence (Ex 400 nm; Em 545 nm; PMT-gain 18). Injections were 5-20 μL depending on the sample concentrations and quantifications were calculated from the fluorescence peak areas after calibration (the detector response was effectively linear over the sensitive range). Topotecan could be reliably identified even at extremely low concentrations (10-20 ng/mL) by its intrinsic fluorescence and retention time (3.33±0.03 min; N=45). […]"}, "[3]": {"settings": "19.6 °C, conc >0.3 mM, dil not given"}, "[4]": {"settings": "19.6 °C, dil 1 (liposomes 20 mg/mL; Gadovist 3.1 or 3 mM), Gadovist 3 mM"}, "[5]": {"settings": "19.6 °C, dil 1 (liposomes 20 mg/mL; Gadovist 3.1 or 3 mM), Gadovist 3.1 mM"}, "[6]": {"settings": "35.5 °C, conc >0.3 mM, dil not given"}}, "note": "Where “and” joins values, the source holds several entries; their conditions need not be identical. Equal entries are not always repeated."}
{"smiles": "O=C([O-])CN1CCN(CC(=O)[O-])CCN([C@H](CO)[C@H](O)CO)CCN(CC(=O)[O-])CC1.[Gd+3]", "note": "(racemic) [Gadovist]", "values": [{"measurement": "T1 (s) 1 param", "setting": "[1]; [3]", "value": 2.033, "unit": "s"}, {"measurement": "T1 (s) 3 param", "setting": "[1]; [3]", "value": 2.061, "unit": "s"}, {"measurement": "T1 (s) Image J", "setting": "[1]; [3]", "value": 2.061, "unit": "s"}, {"measurement": "T2 (s) 1 param", "setting": "[1]; [3]", "value": 0.206, "unit": "s"}, {"measurement": "T2 (s) Image J", "setting": "[1]; [3]", "value": 0.1, "unit": "s"}, {"measurement": "T1 (s) 1 param", "setting": "[1]; [4]", "value": 0.09174, "unit": "s"}, {"measurement": "T1 (s) 3 param", "setting": "[1]; [4]", "value": 0.07712, "unit": "s"}, {"measurement": "T1 (s) Image J", "setting": "[1]; [4]", "value": 0.092, "unit": "s"}, {"measurement": "T2 (s) 1 param", "setting": "[1]; [4]", "value": 0.04691, "unit": "s"}, {"measurement": "T2 (s) 3 param", "setting": "[1]; [4]", "value": 0.0488, "unit": "s"}, {"measurement": "T2 (s) Image J", "setting": "[1]; [4]", "value": 0.047, "unit": "s"}, {"measurement": "T1 (s) 1 param", "setting": "[1]; [5]", "value": 0.072, "unit": "s"}, {"measurement": "T1 (s) 3 param", "setting": "[1]; [5]", "value": 0.084, "unit": "s"}, {"measurement": "T1 (s) Image J", "setting": "[1]; [5]", "value": 0.084, "unit": "s"}, {"measurement": "T2 (s) 1 param", "setting": "[1]; [5]", "value": "0.0431 s and 0.0426 s"}, {"measurement": "T2 (s) 3 param", "setting": "[1]; [5]", "value": "0.0422 s and 0.0419 s"}, {"measurement": "T2 (s) Image J", "setting": "[1]; [5]", "value": 0.042, "unit": "s"}, {"measurement": "T1 (s) 1 param", "setting": "[1]; [6]", "value": 2.602, "unit": "s"}, {"measurement": "T1 (s) 3 param", "setting": "[1]; [6]", "value": 2.617, "unit": "s"}, {"measurement": "T1 (s) Image J", "setting": "[1]; [6]", "value": 2.606, "unit": "s"}, {"measurement": "T2 (s) 1 param", "setting": "[1]; [6]", "value": 0.153, "unit": "s"}, {"measurement": "T2 (s) Image J", "setting": "[1]; [6]", "value": 0.1, "unit": "s"}, {"measurement": "T1 (s) 1 param", "setting": "[1]; 39.5 °C, dil 1 (Gadovist 3 mM)", "value": 0.1297, "unit": "s"}, {"measurement": "T1 (s) 3 param", "setting": "[1]; 39.5 °C, dil 1 (Gadovist 3 mM)", "value": 0.1138, "unit": "s"}, {"measurement": "T1 (s) Image J", "setting": "[1]; 39.5 °C, dil 1 (Gadovist 3 mM)", "value": 0.13, "unit": "s"}, {"measurement": "T2 (s) 1 param", "setting": "[1]; 39.5 °C, dil 1 (Gadovist 3 mM)", "value": 0.05335, "unit": "s"}, {"measurement": "T2 (s) 3 param", "setting": "[1]; 39.5 °C, dil 1 (Gadovist 3 mM)", "value": 0.05578, "unit": "s"}, {"measurement": "T2 (s) Image J", "setting": "[1]; 39.5 °C, dil 1 (Gadovist 3 mM)", "value": 0.053, "unit": "s"}, {"measurement": "r1", "setting": "[1]; measured at 7T Magnet", "value": 4.8}]}
{"smiles": "CC[C@@]1(O)C(=O)OCc2c1cc1n(c2=O)Cc2cc3c(CN(C)C)c(O)ccc3nc2-1", "note": "[topotecan]", "values": [{"measurement": "drug clearance from the blood pool", "setting": "[2]", "value": "cleared from the blood pool in mins"}]}
